Values joined by “and” are separate entries in the source; they are usually repeats but may differ in a detail not shown here. Equal values may be shown once. Active and inactive are the calls of the source. The calls are words filed in the database; no cut-off is given here.
How the values were obtained:
[1] = Ability to inhibit the dibutyryl-cAMP-induced change of an immature glioma cell to a mature, differentiated astrocyte by in vitro astrocytoma assay at 100 ug/mL dose (Experiment #1); value may range from 91 to up; type: functional, Mus musculus
[2] = Ability to inhibit the dibutyryl-cAMP-induced change of an immature glioma cell to a mature, differentiated astrocyte by in vitro astrocytoma assay at 100 ug/mL dose (Experiment #2)value may range from 71 to 90; type: functional, Mus musculus
[3] = Ability to inhibit the dibutyryl-cAMP-induced change of an immature glioma cell to a mature, differentiated astrocyte by in vitro astrocytoma assay at 10 ug/mL dose (Experiment #2); value may range from 31 to 50; type: functional, Mus musculus
[4] = Ability to inhibit the dibutyryl-cAMP-induced change of an immature glioma cell to a mature, differentiated astrocyte by in vitro astrocytoma assay at 10 ug/mL dose (Experiment #1); value may range from 31 to 50; type: functional, Mus musculus
[5] = Ability to inhibit the dibutyryl-cAMP-induced change of an immature glioma cell to a mature, differentiated astrocyte by in vitro astrocytoma assay at 1 ug/mL dose (Experiment #2) value may range from 16 to 30; type: functional, Mus musculus
[6] = Ability to inhibit the dibutyryl-cAMP-induced change of an immature glioma cell to a mature, differentiated astrocyte by in vitro astrocytoma assay at 1 ug/mL dose (Experiment #1); value may range from 16 to 30; type: functional, Mus musculus
Mus musculus [7] = test: In vivo antitumor activity against the L1210 leukemia cell line expressed as percent increase in life span; IA means inactive; type: functional, organism-based
Mus musculus [8] = test: In vivo antitumor activity against the M5076 reticulum cell sarcoma expressed as percent increase in life span; IA means inactive; type: functional, organism-based
Mus musculus [9] = test: In vivo antitumor activity against the B16 melanoma cell line expressed as percent increase in life span; IA means inactive; type: functional, organism-based
Mus musculus [10] = test: Percent increase in life span (ILS) was measured on P388 cells which were inoculated intraperitoneally in CD2F1 mice; type: functional
Mus musculus [11] = test: The percent increase in life span on P388 cells which were inoculated intraperitoneally in CD2F1 mice at 100 mg/kg dose placed at ranking order 1; type: functional; settings: P388, ip, route intraperitoneal
Mus musculus [12] = test: The percent increase in life span on P388 cells which were inoculated intraperitoneally in CD2F1 mice at 100 mg/kg dose placed at ranking order 2; type: functional; settings: P388, ip, route intraperitoneal
Mus musculus [13] = test: In vivo antitumor activity against the B16 melanoma cell line expressed as percent increase in life span at 10 mg/kg dose; type: functional
Mus musculus [14] = test: In vivo antitumor activity against the B16 melanoma cell line expressed as percent increase in life span at 8 mg/kg dose; type: functional
Mus musculus [15] = test: In vivo antitumor activity against the L1210 leukemia cell line expressed as percent increase in life span at 4 mg/kg dose; type: functional
Mus musculus [16] = test: In vivo antitumor activity against the L1210 leukemia cell line expressed as percent increase in life span at 8 mg/kg dose; type: functional
Mus musculus [17] = test: In vivo antitumor activity against the M5076 reticulum cell sarcoma expressed as percent increase in life span at 32 mg/kg dose; type: functional
Mus musculus [18] = test: Percent increase in life span (ILS) was measured on P388 cells which were inoculated intraperitoneally in CD2F1 mice at 16 mg/kg; type: functional; settings: P388, ip, route intraperitoneal
Mus musculus [19] = test: In vivo antitumor activity against the B16 melanoma cell line determined as number of cured out of the number tested at 10 mg/kg dose ( out of 10 mice); type: functional
Mus musculus [20] = test: In vivo antitumor activity against the B16 melanoma cell line determined as number of cured out of the number tested at 8 mg/kg dose ( out of 6 mice); type: functional
Mus musculus [21] = test: In vivo antitumor activity against the L1210 leukemia cell line determined as number of cured out of the number tested at 8 mg/kg dose ( out of 8 mice); type: functional
Mus musculus [22] = test: In vivo antitumor activity against the L1210 leukemia cell line determined as number of cured out of the number tested at 4 mg/kg dose ( out of 10 mice); type: functional
Mus musculus [23] = species: Mus musculus; test: P388 activity determined as number of cured out of the number tested in 6 CD2F1 mice; type: functional
Mus musculus [24] = test: The percent increase in life span on P388 cells which were inoculated intraperitoneally in CD2F1 mice at 200 mg/kg dose placed at ranking order 1; type: functional; settings: P388, ip, route intraperitoneal
Mus musculus [25] = test: The percent increase in life span on P388 cells which were inoculated intraperitoneally in CD2F1 mice at 200 mg/kg dose placed at ranking order 3; type: functional; settings: P388, ip, route intraperitoneal
Mus musculus [26] = test: The percent increase in life span on P388 cells which were inoculated intraperitoneally in CD2F1 mice at 300 mg/kg dose placed at ranking order 4; type: functional; settings: P388, ip, route intraperitoneal
Mus musculus [27] = test: In vivo antitumor activity against the B16 melanoma cell line expressed as percent increase in life span at 100 mg/kg dose; type: functional
Mus musculus [28] = test: In vivo antitumor activity against the B16 melanoma cell line expressed as percent increase in life span at 200 mg/kg dose; type: functional
Mus musculus [29] = test: In vivo antitumor activity against the L1210 leukemia cell line expressed as percent increase in life span at 200 mg/kg dose; type: functional; settings: dose 200 mg/kg
Mus musculus [30] = test: In vivo antitumor activity against the M5076 reticulum cell sarcoma expressed as percent increase in life span at 500 mg/kg dose; type: functional
Mus musculus [31] = test: The percent increase in life span on P388 cells which were inoculated intraperitoneally in CD2F1 mice at 400 mg/kg dose placed at ranking order 2; type: functional; settings: P388, ip, route intraperitoneal
Mus musculus [32] = test: The percent increase in life span on P388 cells which were inoculated intraperitoneally in CD2F1 mice at 240 mg/kg dose placed at ranking order 1; type: functional; settings: P388, ip, route intraperitoneal
[33] = Ability to inhibit the dibutyryl-cAMP-induced change of an immature glioma cell to a mature, differentiated astrocyte by in vitro astrocytoma assay at 0.1 ug/mL dose (Experiment #2); value may range from 0 to 5; type: functional, Mus musculus
[34] = Ability to inhibit the dibutyryl-cAMP-induced change of an immature glioma cell to a mature, differentiated astrocyte by in vitro astrocytoma assay at 0.1 ug/mL dose (Experiment #1); value may range from 0 to 5; type: functional, Mus musculus
[35] = Ability to inhibit the dibutyryl-cAMP-induced change of an immature glioma cell to a mature, differentiated astrocyte by in vitro astrocytoma assay at 10 ug/mL dose (Experiment #1); value may range from 91 to up; type: functional, Mus musculus
[36] = Ability to inhibit the dibutyryl-cAMP-induced change of an immature glioma cell to a mature, differentiated astrocyte by in vitro astrocytoma assay at 10 ug/mL dose (Experiment #2); value may range from 91 to up; type: functional, Mus musculus
[37] = Ability to inhibit the dibutyryl-cAMP-induced change of an immature glioma cell to a mature, differentiated astrocyte by in vitro astrocytoma assay at 1 ug/mL dose (Experiment #1); value may range from 51 to 70; type: functional, Mus musculus
[38] = Ability to inhibit the dibutyryl-cAMP-induced change of an immature glioma cell to a mature, differentiated astrocyte by in vitro astrocytoma assay at 1 ug/mL dose (Experiment #2); value may range from 51 to 70; type: functional, Mus musculus

Which Astrocyte reversal [1] does the source give for `CCOc1cc2c(cc1C(C)c1ccc(OC)cc1)OCO2` (stereo not drawn) here?
Its Astrocyte reversal is 91%.

And the Astrocyte reversal [2]?
Its Astrocyte reversal is 90%.

And the Astrocyte reversal [3]?
The Astrocyte reversal was 50%.

And the Astrocyte reversal [4]?
The Astrocyte reversal was 50%.

And the Astrocyte reversal [5]?
Its Astrocyte reversal is 30%.

What about the Astrocyte reversal [6] of the same molecule?
Its Astrocyte reversal is 30%.

What about the ILS (Mus musculus [7]) of the same molecule?
The ILS was “inactive”.

And the ILS (Mus musculus [8])?
The ILS was “inactive”.

What about the ILS (Mus musculus [9]) of the same molecule?
The ILS was “inactive”.

And the ILS (Mus musculus [10])?
The ILS was 25%.

What about the ILS at 100 mg/kg (Mus musculus [11]) of the same molecule?
The ILS at 100 mg/kg was 25%.

And the ILS at 100 mg/kg (Mus musculus [12])?
The ILS at 100 mg/kg was 23%.

For `COc1cc([C@@H]2c3cc4c(cc3[C@@H](O[C@@H]3O[C@@H]5CO[C@@H](C)O[C@H]5[C@H](O)[C@H]3O)[C@H]3COC(=O)[C@H]23)OCO4)cc(OC)c1O` [ETOPOSIDE], which ILS at 10 mg/kg (Mus musculus [13]) is on record?
Its ILS at 10 mg/kg is > 185%.

What about the ILS at 8 mg/kg (Mus musculus [14]) of the same molecule?
Its ILS at 8 mg/kg is > 176%.

And the ILS at 4 mg/kg (Mus musculus [15])?
Its ILS at 4 mg/kg is 118%.

And the ILS at 8 mg/kg (Mus musculus [16])?
The ILS at 8 mg/kg was > 511%.

And the ILS at 32 mg/kg (Mus musculus [17]; Mus musculus, M5076, dose 32 mg/kg)?
Its ILS at 32 mg/kg is 87%.

And the ILS (Mus musculus [17]; dose 32 mg/kg)?
The ILS was 72%.

And the ILS at 16 mg/kg (Mus musculus [18])?
The ILS at 16 mg/kg was 219%.

What about the No. of cures (Mus musculus [19]) of the same molecule?
The No. of cures was 6.

And the No. of cures (Mus musculus [20])?
Its No. of cures is 3.

And the No. of cures (Mus musculus [21])?
The No. of cures was 4.

And the No. of cures (Mus musculus [22])?
Its No. of cures is 2.

What about the No. of cures (Mus musculus [23]) of the same molecule?
The No. of cures was 3.

Which results are given for `CCOc1ccc(C(C)c2cc3c(cc2OC)OCO3)cc1` (stereo not drawn)?
ILS at 200 mg/kg (Mus musculus [24]): 78%; ILS at 200 mg/kg (Mus musculus [25]): 56%; ILS at 300 mg/kg (Mus musculus [26]): 31%; ILS at 100 mg/kg (Mus musculus [27]): 29%; ILS at 200 mg/kg (Mus musculus [28]): 42%; ILS (Mus musculus [29]): 50% and 24%; ILS (Mus musculus [30]): 49% and 27%; ILS at 400 mg/kg (Mus musculus [31]): 61%; ILS (Mus musculus [10]): 78%

With `CCCOc1cc2c(cc1C(C)c1ccc(OCC)cc1)OCO2` (stereo not drawn) as the molecule, how does the ILS at 240 mg/kg (Mus musculus [32]) read?
Its ILS at 240 mg/kg is 41%.

And the ILS (Mus musculus [10])?
The ILS was 41%.

What about the ILS at 100 mg/kg (Mus musculus [12]) of the same molecule?
Its ILS at 100 mg/kg is 26%.

For `COc1cc2c(c(OC)c1OC)-c1ccc(OC)c(=O)cc1[C@@H](NC(C)=O)CC2` [COLCHICINE], which Astrocyte reversal [33] is on record?
The Astrocyte reversal was 0%.

And the Astrocyte reversal [34]?
The Astrocyte reversal was 0%.

And the Astrocyte reversal [35]?
Its Astrocyte reversal is 91%.

What about the Astrocyte reversal [36] of the same molecule?
The Astrocyte reversal was 91%.

What about the Astrocyte reversal [37] of the same molecule?
The Astrocyte reversal was 51%.

And the Astrocyte reversal [38]?
Its Astrocyte reversal is 51%.

For `O=c1[nH]cc(F)c(=O)[nH]1` [FLUOROURACIL], which ILS (Mus musculus [10]) is on record?
Its ILS is 73%.

Reference: ChEMBL document CHEMBL1123608, “In vivo antitumor activity of 6-benzyl-1,3-benzodioxole derivatives against the P388, L1210, B16, and M5076 murine models” (1987)
